According to patent US20250134875A1, “FORMULATIONS OF ALK-5 KINASE INHIBITORS AND USES THEREOF” (Thirona Bio, Inc., priority 2023, published 2025):
Converted amounts (≈) assume the structure as drawn.

Key:
[1] = Solubility of Compound 1 in solvents; format: physicochemical
Excerpt: Tables 2 and 3 provide the solubility of the exemplary ALK-5 kinase inhibitor Compound 1 in various solvents.

[2] = Solubility assessment in solvent and excipient systems (formulated systems); format: physicochemical; settings: 25° C.
Excerpt: Table 5 provides the solubility of Compound 1 in various solvents and excipient systems to analyze the topical systems to be utilized with the formulations.

## Cc1cccc(-n2ncc(C)c2-c2cc3cnccc3s2)n1 [Compound 1]
[1]; Cycolmethicone NF, oil or lipid
  solubility: 190 µg/mL (≈ 0.62 mM)
[1]; DMSO, organic solvent or mixture
  solubility: 83700 µg/mL (≈ 273 mM)
[1]; Dimethicone 100 CST, oil or lipid
  solubility: 110 µg/mL (≈ 0.359 mM)
[1]; PEG 400, organic solvent or mixture
  solubility: 43900 µg/mL (≈ 143 mM)
[1]; PPG-15 stearyl ether, oil or lipid
  solubility: 4870 µg/mL (≈ 15.9 mM)
[1]; Transcutol (DEGEE), organic solvent or mixture
  solubility: 115000 µg/mL (≈ 376 mM)
[1]; acetone, organic solvent or mixture
  solubility: 38300 µg/mL (≈ 125 mM)
[1]; benzyl alcohol, organic solvent or mixture
  solubility: > 300000 µg/mL
[1]; diethyl sebacate, oil or lipid
  solubility: 13100 µg/mL (≈ 42.6 mM)
[1]; diisopropyl adipate, oil or lipid
  solubility: 50500 µg/mL (≈ 165 mM)
[1]; ethanol, organic solvent or mixture
  solubility: 30800 µg/mL (≈ 101 mM)
[1]; hexylene glycol, organic solvent or mixture
  solubility: 50200 µg/mL (≈ 164 mM)
[1]; isopropyl myristate, oil or lipid
  solubility: 3450 µg/mL (≈ 11.3 mM)
[1]; medium chain triglycerides, oil or lipid
  solubility: 5310 µg/mL (≈ 17.3 mM)
[1]; mineral oil, oil or lipid
  solubility: 540 µg/mL (≈ 1.76 mM)
[1]; octyldodecanol, oil or lipid
  solubility: 5370 µg/mL (≈ 17.5 mM)
[1]; organic solvent or mixture, Propylene Glycol (PG)
  solubility: 23700 µg/mL (≈ 77.4 mM)
[1]; phenethyl alcohol, organic solvent or mixture
  solubility: > 300000 µg/mL
[1]; phosphate buffer, pH 6.5, aqueous buffer
  solubility: 20 µg/mL (≈ 0.0653 mM)
[1]; propylene carbonate, organic solvent or mixture
  solubility: 24100 µg/mL (≈ 78.7 mM)
[1]; sodium citrate buffer, pH 3, aqueous buffer, Sod.Citrate buffer (pH3)
  solubility: 2190 µg/mL (≈ 7.15 mM)
[1]; sodium citrate buffer, pH 4, aqueous buffer, Sod.Citrate buffer (pH4)
  solubility: 290 µg/mL (≈ 0.946 mM)
[1]; sodium citrate buffer, pH 5, aqueous buffer, Sod.Citrate buffer (pH5)
  solubility: 70 µg/mL (≈ 0.228 mM)
[1]; water
  solubility: 20 µg/mL (≈ 0.0653 mM)
[2]; Aqueous Gels, aqueous component 10-30% w/w
  Max solubility of Compound 1: 1-2.7%/w
[2]; Creams & Lotions, aqueous component 30-40% w/w
  Max solubility of Compound 1: 1-1.5%/w
[2]; Non-Aqueous Gels & Film forming solutions, aqueous component 0.0% w/w
  Max solubility of Compound 1: 3-3.5%/w
